Measured values as given in patent US6331555A, “Treatment of platelet derived growth factor related disorders such as cancers” (priority 1999, dated 2001).

What was measured:
[1] = test system: ovarian carcinoma primary tumor cells; experiment: Growth of primary tumor cells from ovarian carcinoma patients; type: cell-based, human; parameters: tumor cell growth: dose or concentration left out as unconfirmed
Protocol: Viable tumors were placed into medium by the pathologist at the referring institution immediately after surgery, and shipped to Oncotech by overnight delivery. As soon as a tumor was received, a portion was fixed in formalin for sectioning and the remainder trimmed of necrotic, connective and adipose tissues. All tumor manipulations were performed aseptically. The remaining tumor was placed into a Petri dish containing 5 mL of medium (RPMI 1640 supplemented with 10% FBS, 100 IU/mL penicillin, […] streptomycin and L-glutamine) and disaggregated mechanically with scissors into pieces 2 mm or smaller. […]
After enzymatic dispersion into a near single-cell suspension, tumor cells were filtered through nylon mesh, washed in medium, suspended in soft agarose (0.12%) and plated at approximately 20,000 cells per well onto an agarose underlayer (0.4%) in 24-well plates. […] After the appropriate labeling period, tissue culture plates were heated at 60° C. to melt the agarose, the cells harvested with a micro-harvester onto glass fiber filters and the radioactivity determined. Percent inhibition (PCI) was determined using the formula: PCI=1-(CPM treatment group […] CPM control group). Determinations of control group proliferation were performed in quadruplicate, while treatment group proliferation was determined in triplicate. […]

[2] = test system: SKOV-3 cells; experiment: Soft agar assay (SAA); type: cell-based; conditions: Homo sapiens, SK-OV-3; PDGF-R expression -
Protocol: (§1) After a 2 to 3 week incubation at 37° C., colonies larger than 50 μm were quantified using an Omnicon 3800 Tumor Colony counter.
(§2) PDGF-R expression was measured qualitatively using a western blot.

[3] = test system: SF767T cells; experiment: Soft agar assay (SAA); type: cell-based; conditions: Homo sapiens; PDGF-R expression ++
Protocol: as §1, §2

[4] = test system: C6 cells; experiment: Soft agar assay (SAA); type: cell-based; conditions: Rattus norvegicus, PDGF-R expression ++
Protocol: as §1, §2

[5] = test system: SKOV-3T cells; experiment: Soft agar assay (SAA); type: cell-based; conditions: Homo sapiens; PDGF-R expression ++
Protocol: as §1, §2

[6] = in vivo; parameters: species or system rat
Protocol: Plasma was prepared and frozen in liquid nitrogen. Tissues and organs were resected and immediately frozen in liquid nitrogen. After the addition of an internal standard, plasma samples were acidified with HCl and extracted with acetonitrile. The acetonitrile fraction was evaporated to dryness in a vacuum centrifuge with heating and redissolved in methanol. Tissue and organ samples were homogenized according to the weight ratio of 1:5 (w:v) in 50 mM Tris-HCl, pH 7.4, at 20,000 rev/min, using a tissue homogenizer (Brinkmann Polytron Model PT3000). After the addition of an internal standard, the homogenate was acidified with HCl and then extracted with acetonitrile. The acetonitrile fraction was then extracted with an equal volume of diethyl ether. The ether fraction was evaporated to dryness in a vacuum centrifuge with heating and redissolved in methanol.
Samples for HPLC analysis were injected onto a Hewlett Packard Hypersil 5-μm C18 cartridge column (100×4.6 mm). The mobile phase was methanol:35 mM KH2 PO4 (pH 4.5) 55:45 containing 4 mM triethylamine. The flow rate was 1.2 mL/min. The compounds were monitored by UV absorption at 254 nm using a Hewlett-Packard diode-array detector (HP Model 1090). Plasma and tissue concentrations were determined from standard curves using peak area for quantitation. […] The internal standard used was 5-methyl-pyrazole-4-carboxylic acid-(4-trifluoromethyl)-anilide.
Table XXII. […] Plasma and brain samples were prepared and analyzed by HPLC as described in Appendix 6. All results were calculated by the method of internal standardization. NT= not tested, ND= not detected.

[7] = test system: autoimmune animal diseases; conditions: in vivo; cited from earlier work

## Cc1oncc1C(=O)Nc1ccc(C(F)(F)F)cc1 [Compound A10, 5-methylisoxazole-4 carboxylic acid-(4-trifluromethyl)-anilide]
[1]
  tumor cell growth: tumor cell growth decreased for both types of tumors
[1]; Homo sapiens, range over six patients, read-out: IC50, ovarian tumors
  IC50: 20000 to 140000 nM
[2]
  IC50: 6300 nM
[3]
  IC50: 500 to 2000 nM
[4]
  IC50: 400 nM
[5]
  IC50: 300 nM
[6]; IP A10 80 mg/kg single dose
  time detected in plasma: up to 8 hr
[6]; IP A10 80 mg/kg, first time point analyzed
  time by which A10 converted to B11: ≤ 2 h
[6]; rat, plasma, ip, 80 mg/kg
  Cmax: 5000 ng/mL
[7]
  autoimmune animal diseases: very effective in preventing and curing several autoimmune animal diseases
